One test concerns the target sigma-2 receptor (Homo sapiens, UniProt Q5BJF2). Description: sigma-2 receptor binding affinity (Ki). Conditions: for Ki: read-out: Ki (nM) Sigma-2.
The target in the next test is sigma-1 receptor (Homo sapiens, UniProt Q99720). The test is described as follows: sigma-1 receptor binding affinity (Ki). Particulars: for Ki: read-out: Ki (nM) Sigma-1.
Chain of sigma-1 receptor (Q99720 whole entry, species assumed): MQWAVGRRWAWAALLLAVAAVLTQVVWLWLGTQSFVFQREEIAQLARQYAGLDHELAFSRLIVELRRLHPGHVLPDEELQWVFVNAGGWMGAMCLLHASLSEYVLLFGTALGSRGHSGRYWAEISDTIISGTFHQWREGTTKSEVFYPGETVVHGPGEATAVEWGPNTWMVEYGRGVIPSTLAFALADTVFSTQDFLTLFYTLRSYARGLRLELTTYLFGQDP

Chain of sigma-2 receptor (Q5BJF2 whole entry, species assumed): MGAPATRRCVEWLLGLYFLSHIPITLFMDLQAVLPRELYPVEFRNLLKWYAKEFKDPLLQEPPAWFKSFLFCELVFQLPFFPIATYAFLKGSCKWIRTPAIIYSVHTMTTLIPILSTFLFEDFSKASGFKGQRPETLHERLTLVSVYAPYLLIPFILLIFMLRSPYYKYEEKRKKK

A word on the Ki: it is a dissociation constant, usually derived from enzyme kinetics or from competition with a known ligand. Consider `O=C(c1nn(Cc2ccccc2)c2c1CC(NCCc1ccncc1)CC2)N1CCCCC1` (centres unmarked) [compound 201114, (1-benzyl-5-((2-(pyridin-4-yl)ethyl)amino)-4,5,6,7-tetrahydro-1H-indazol-3-yl)(piperidin-1-yl)methanone], for which the Ki is over 10000 nM on sigma-2 receptor and 249 nM on sigma-1 receptor.
Turning to `O=C(c1nn(Cc2ccccc2)c2c1CC(NCc1ccc(F)cc1)CC2)N1CCCCC1` (centres unmarked) [compound 201115, (1-benzyl-5-((4-fluorobenzyl)amino)-4,5,6,7-tetrahydro-1H-indazol-3-yl)(piperidin-1-yl)methanone], the inhibitory constant (Ki) is over 10000 nM on sigma-2 receptor and 70 nM on sigma-1 receptor. Moreover, on sigma-1 receptor, the “selectivity sigma-1 versus sigma-2 (in words)” value was “excellent selectivity”.
For `O=C(c1c2c(nn1-c1ccc(F)cc1)CCC(NCCc1ccncc1)C2)N1CCCCC1` (centres unmarked) [compound 201116, (2-(4-fluorophenyl)-5-((2-(pyridin-4-yl)ethyl)amino)-4,5,6,7-tetrahydro-2H-indazol-3-yl)(piperidin-1-yl)methanone], the Ki was determined as 251 nM on sigma-2 receptor and 103 nM on sigma-1 receptor.
On the same counts, the results for `NC(=O)c1ccc(-n2nc3c(c2C(=O)N2CCCCC2)CC(NCCc2ccccc2)CC3)cc1` (centres unmarked) [compound 201242, 4-(5-(Phenethylamino)-3-(piperidine-1-carbonyl)-4,5,6,7-tetrahydro-2H-indazol-2-yl)benzamide] are over 10000 nM and 588 nM.
On the same counts, the results for `NC(=O)c1ccc(-n2nc(C(=O)N3CCCCC3)c3c2CCC(NCCc2ccccc2)C3)cc1` (centres unmarked) [compound 201243, 4-(5-(Phenethylamino)-3-(piperidine-1-carbonyl)-4,5,6,7-tetrahydro-1H-indazol-1-yl)benzamide] are 561 nM and 465 nM.
Turning to `C=Cc1ccc(-n2nc(C(=O)N3CCCCC3)c3c2CCC(NCCc2ccccc2)C3)cc1` (centres unmarked) [compound 201244, (5-(Phenethylamino)-1-(4-vinylphenyl)-4,5,6,7-tetrahydro-1H-indazol-3-yl)(piperidin-1-yl)methanone], the Ki at sigma-2 receptor was determined as 305 nM; on sigma-1 receptor, 458 nM.
The matching figures for `C=Cc1ccc(-n2nc3c(c2C(=O)N2CCCCC2)CC(NCCc2ccccc2)CC3)cc1` (centres unmarked) [compound 201591, (5-(phenethylamino)-2-(4-vinylphenyl)-4,5,6,7-tetrahydro-2H-indazol-3-yl)(piperidin-1-yl)methanone]: 32 nM and 96 nM.
As for `O=C(c1nn(-c2ccccc2)c2c1CC(NCc1ccccc1)CC2)N1CCCCC1` (centres unmarked) [compound 201665, (5-(Benzylamino)-1-phenyl-4,5,6,7-tetrahydro-1H-indazol-3-yl)(piperidin-1-yl)methanone], the inhibition constant Ki at sigma-2 receptor worked out at 492 nM; at sigma-1 receptor, 710 nM.
The matching figures for `O=C(c1nn(-c2ccccc2)c2c1CC(NCCc1ccncc1)CC2)N1CCCCC1` (centres unmarked) [compound 201666, (1-Phenyl-5-((2-(pyridin-4-yl)ethyl)amino)-4,5,6,7-tetrahydro-1H-indazol-3-yl)(piperidin-1-yl)methanone]: 517 nM and 1030 nM.
Consider `O=C(c1nn(-c2ccccc2)c2c1CC(NCCc1ccc(F)cc1)CC2)N1CCCCC1` (centres unmarked) [compound 201667, (5-((4-Fluorophenethyl)amino)-1-phenyl-4,5,6,7-tetrahydro-1H-indazol-3-yl)(piperidin-1-yl)methanone], for which the Ki at sigma-2 receptor worked out at 91 nM; at sigma-1 receptor it was 131 nM. Besides, the “selectivity sigma-1 versus sigma-2 (in words)” value at sigma-1 receptor is “equipotent inhibitor against both sigma receptors”.
`O=C(c1c2c(nn1-c1ccccc1)CCC(NCCc1ccncc1)C2)N1CCCCC1` (centres unmarked) [compound 201670, (2-Phenyl-5-((2-(pyridin-4-yl)ethyl)amino)-4,5,6,7-tetrahydro-2H-indazol-3-yl)(piperidin-1-yl)methanone]: the values for the inhibition constant Ki at sigma-2 receptor and at sigma-1 receptor were 296 nM and 226 nM, respectively.
On the same counts, the results for `O=C(c1c2c(nn1-c1ccccc1)CCC(NCc1ccccc1)C2)N1CCCCC1` (centres unmarked) [compound 201676, (5-(Benzylamino)-2-phenyl-4,5,6,7-tetrahydro-2H-indazol-3-yl)(piperidin-1-yl)methanone] are 139 nM and 38 nM.
In the case of `O=C(c1nn(-c2ccccc2)c2c1CC(NCCc1ccc3c(c1)OCO3)CC2)N1CCCCC1` (centres unmarked) [compound 201679, (5-((2-(Benzo[d][1,3]dioxol-5-yl)ethyl)amino)-1-phenyl-4,5,6,7-tetrahydro-1H-indazol-3-yl)(piperidin-1-yl)methanone], the figures for the Ki at sigma-2 receptor and at sigma-1 receptor were 349 nM and 547 nM, respectively.
On the same counts, the results for `O=C(c1nn(-c2ccccc2)c2c1CC(NCCc1cccc(O)c1)CC2)N1CCCCC1` (centres unmarked) [compound 201681, (5-((3-Hydroxyphenethyl)amino)-1-phenyl-4,5,6,7-tetrahydro-1H-indazol-3-yl)(piperidin-1-yl)methanone] are over 10000 nM and 204 nM.
The matching figures for `O=C(c1c2c(nn1-c1ccccc1)CCC(NCCc1ccc(C(F)(F)F)cc1)C2)N1CCCCC1` (centres unmarked) [compound 201683, (2-Phenyl-5-((4-(trifluoromethyl)phenethyl)amino)-4,5,6,7-tetrahydro-2H-indazol-3-yl)(piperidin-1-yl)methanone]: over 10000 nM and 213 nM.
On the same counts, the results for `O=C(c1nn(-c2ccccc2)c2c1CC(NCCc1ccc(C(F)(F)F)cc1)CC2)N1CCCCC1` (centres unmarked) [compound 201684, (1-Phenyl-5-((4-(trifluoromethyl)phenethyl)amino)-4,5,6,7-tetrahydro-1H-indazol-3-yl)(piperidin-1-yl)methanone] are over 10000 nM and 337 nM.
Take `CCCn1nc(C(=O)N(C)C)c2c1CCC(NC(=O)c1ccc(F)cc1)C2` (centres unmarked) [compound 2000623, 5-(4-fluorobenzamido)-N,N-dimethyl-1-propyl-4,5,6,7-tetrahydro-1H-indazole-3-carboxamide]: at sigma-2 receptor, the “activity against sigma-2 (in words)” value is reported as “did not restore the activity” and the Ki is over 10000 nM. In addition, at sigma-1 receptor, the “activity against sigma-1 (in words)” value is on record as “did not restore the activity” and the inhibition constant (Ki) is over 10000 nM.
`O=C(c1nn(-c2ccccc2)c2c1CC(NCc1ccc(F)cc1)CC2)N1CCCCC1` (centres unmarked) [compound 2001685, (5-((4-Fluorobenzyl)amino)-1-phenyl-4,5,6,7-tetrahydro-1H-indazol-3-yl)(piperidin-1-yl)methanone]: the inhibition constant (Ki) was over 10000 nM on sigma-2 receptor and 159 nM on sigma-1 receptor. Besides, the “improvement in potency against sigma-1 receptor” value on sigma-1 receptor (relative to the comparator analog named in the text) is listed as “over 4 fold”.

Source of the values: US12692236B2, “Small molecule modulators of sigma-1 and sigma-2 receptors and uses thereof” (Northwestern University, priority 2018, dated 2026).
